Data taken from ChEMBL document CHEMBL1152804, “Relationship between brain tissue partitioning and microemulsion retention factors of CNS drugs” (J Med Chem, 2009).

Assays:
[1] = Lipophilicity, log D at pH 7.4 by liquid chromatography; format: physicochemical; conditions: buffer
[2] = Fraction unbound in rat brain; format: ADME, tissue-based
[3] = Dissociation constant, pKa by capillary electrophoresis; format: physicochemical
[4] = Lipophilicity, log P by microemulsion electrokinetic chromatography; format: physicochemical
[5] = Lipophilicity, log P of the compound; format: physicochemical; conditions: octanol/water
[6] = Dissociation constant, pKa by mass spectrometry; format: physicochemical

| Compound | logD [1] | logP ([4]; read-out: logP) | logP ([5]; read-out: logP) | other results |
| --- | --- | --- | --- | --- |
| CN1CCCCC1CCN1c2ccccc2Sc2ccc([S+](C)[O-])cc21 (stereo not given) [MESORIDAZINE] | 1.7 | 4.26 |  | fraction unbound [2]: 0.016; pKa [3]: 9.61 |
| CN1CCC[C@H]1c1cccnc1 [NICOTINE] |  | 1.22 | 1.39 |  |
| Clc1ccc2c(c1)C(N1CCNCC1)=Nc1ccccc1O2 [AMOXAPINE] | 2.4 | 3.71 |  | pKa [6]: 3.38; fraction unbound [2]: 0.01; pKa [3]: 8.71 |
| CN1C(C(=O)Nc2ccccn2)=C(O)c2ccccc2S1(=O)=O [PIROXICAM] |  | 1.45 | 1.68 |  |
| CNCCC=C1c2ccccc2CCc2ccccc21 [NORTRIPTYLINE] | 2.8 | 4.36 | 4.39 |  |
| Fc1ccc([C@@H]2CCNC[C@H]2COc2ccc3c(c2)OCO3)cc1 [PAROXETINE] |  | 4.07 |  |  |
| CCN(CC)CCNC(=O)c1cc(Cl)c(N)cc1OC [METOCLOPRAMIDE] |  |  |  | fraction unbound [2]: 0.365 |
| CC(C)NCC(O)COc1cccc2[nH]ccc12 (stereo not given) [PINDOLOL] |  | 1.71 |  |  |
| NC(=O)N1c2ccccc2C=Cc2ccccc21 [CARBAMAZEPINE] |  | 2.29 | 2.34 |  |
| CNC(=C[N+](=O)[O-])NCCSCc1ccc(CN(C)C)o1 [RANITIDINE] |  | 1.06 | 1.28 |  |
| COC(=O)Nc1nc2ccc(C(=O)c3ccccc3)cc2[nH]1 [MEBENDAZOLE] |  | 2.26 | 2.42 |  |
| CN1CCN2c3ncccc3Cc3ccccc3C2C1 (stereo not given) [MIRTAZAPINE] | 2.3 | 3.48 |  | pKa [6]: 3.59; fraction unbound [2]: 0.08; pKa [3]: 7.79 |
| C=CCc1ccccc1OCC(O)CNC(C)C (stereo not given) [ALPRENOLOL] |  | 3.57 | 2.99 |  |
| COc1ccc(C(CN(C)C)C2(O)CCCCC2)cc1 (stereo not given) [VENLAFAXINE] | 1 | 3.2 |  |  |
| C[C@]12C[C@H](O)[C@H]3[C@@H](CCC4=CC(=O)CC[C@@]43C)[C@@H]1CC[C@@H]2C(=O)CO [CORTICOSTERONE] |  | 2.9 | 2.2 |  |
| CC(C)n1c(/C=C/C(O)CC(O)CC(=O)O)c(-c2ccc(F)cc2)c2ccccc21 (stereo not given) [FLUVASTATIN] |  | 3.92 |  |  |
| OCCOCCN1CCN(C(c2ccccc2)c2ccc(Cl)cc2)CC1 (stereo not given) [HYDROXYZINE] | 3.6 |  |  | logP [4]: 4 |
| CCOC(=O)c1ccc(N)cc1 [BENZOCAINE] |  | 1.79 | 1.89 |  |
| COCCc1ccc(OCC(O)CNC(C)C)cc1 (stereo not given) [METOPROLOL] |  | 2.08 |  |  |
| CN1CCN(C2=Nc3ccccc3Oc3ccc(Cl)cc32)CC1 [LOXAPINE] |  |  |  | fraction unbound [2]: 0.011 |
| O=C(CCCN1CCC(O)(c2ccc(Cl)cc2)CC1)c1ccc(F)cc1 [HALOPERIDOL] |  | 3.53 | 3.67 |  |
| COC(=O)C(c1ccccc1)C1CCCCN1 (stereo not given) [METHYLPHENIDATE] | 0.4 | 2.67 |  |  |
| O=C(c1ccccc1)c1ccc2n1CCC2C(=O)O (stereo not given) [KETOROLAC] |  |  |  | logP [5]: 1.26; logP [4]: 1.68 |
| Clc1cccc(Cl)c1N=C1NCCN1 [CLONIDINE] |  | 1.08 | 1.57 |  |
| C[C@]12CCC(=O)C=C1CC[C@@H]1[C@@H]2[C@@H](O)C[C@@]2(C)[C@H]1CC[C@]2(O)C(=O)CO [HYDROCORTISONE] |  | 2.38 | 1.65 |  |
| CCCC(C)(COC(N)=O)COC(=O)NC(C)C (stereo not given) [CARISOPRODOL] |  | 2.4 |  |  |
| COc1ccc(Cc2nccc3cc(OC)c(OC)cc23)cc1OC [PAPAVERINE] |  | 2.73 |  |  |

| Compound | logD [1] | logP ([4]; read-out: logP) | logP ([5]; read-out: logP) | other results |
| --- | --- | --- | --- | --- |
| Cc1ncc2n1-c1ccc(Cl)cc1C(c1ccccc1F)=NC2 [MIDAZOLAM] | 3.38 | 3.65 |  |  |
| CN(C)CCC=C1c2ccccc2COc2ccccc21 [DOXEPIN] | 2.3 | 4.07 | 4.29 | fraction unbound [2]: 0.025; pKa [3]: 9.37 |
| CCN(CC)CCOC(=O)c1ccc(N)cc1 [PROCAINE] |  | 2.18 | 2.2 |  |
| CN(C)CCC=C1c2ccccc2C=Cc2ccccc21 [CYCLOBENZAPRINE] |  | 4.81 |  |  |
| CNS(=O)(=O)Cc1ccc2[nH]cc(CCN(C)C)c2c1 | < 0 | 1.41 |  | fraction unbound [2]: 0.724; pKa [3]: 9.68 |
| Nc1nnc(-c2cccc(Cl)c2Cl)c(N)n1 [LAMOTRIGINE] | < 0 | 1.6 |  |  |
| CCCCNc1ccc(C(=O)OCCN(C)C)cc1 [TETRACAINE] |  |  | 3.46 |  |
| NC12CC3CC(CC(C3)C1)C2 [AMANTADINE] | < 0 | 2.82 |  | fraction unbound [2]: 0.233 |
| O=c1n(CCCN2CCN(c3cccc(Cl)c3)CC2)nc2ccccn12 [TRAZODONE] | 2.99 | 2.92 |  |  |
| CN1CCN(C2=Nc3cc(Cl)ccc3Nc3ccccc32)CC1 [CLOZAPINE] | 3.48 | 3.6 | 4.1 |  |
| Cc1nc2n(c(=O)c1CCN1CCC(c3noc4cc(F)ccc34)CC1)CCCC2 [RISPERIDONE] | 1.71 | 2.86 |  |  |
| OCCN1CCN(CCCN2c3ccccc3Sc3ccc(Cl)cc32)CC1 [PERPHENAZINE] | 4.1 | 3.83 |  | pKa [6]: 3.72; fraction unbound [2]: 0.004; pKa [3]: 8.04 |
| COc1ccc(CN(CCN(C)C)c2ccccn2)cc1 [PYRILAMINE] |  |  | 3.12 |  |
| CSc1ccc2c(c1)N(CCC1CCCCN1C)c1ccccc1S2 (stereo not given) [THIORIDAZINE] | 4.4 |  |  | fraction unbound [2]: 0.001; logP [4]: 4.75 |
| CCOC(=O)c1ncn2c1CN(C)C(=O)c1cc(F)ccc1-2 [FLUMAZENIL] |  | 0.92 | 1.64 |  |
| CCCN1C[C@H](CSC)C[C@@H]2c3cccc4[nH]cc(c34)C[C@H]21 [PERGOLIDE] | 3 | 4.22 |  | fraction unbound [2]: 0.027; pKa [3]: 8.78 |
| Cc1ccc(-c2nc3ccc(C)cn3c2CC(=O)N(C)C)cc1 [ZOLPIDEM] | 2.3 | 2.2 |  |  |
| c1ccc(-c2ccc(C(c3ccccc3)n3ccnc3)cc2)cc1 (stereo not given) [BIFONAZOLE] |  | 5.56 |  |  |
| CN1CCOC(c2ccccc2)c2ccccc2C1 (stereo not given) [NEFOPAM] |  | 3.2 | 3.02 |  |
| CC(NC(C)(C)C)C(=O)c1cccc(Cl)c1 (stereo not given) [BUPROPION] |  | 3.76 | 3.21 |  |
| CN(C)CCCN1c2ccccc2Sc2ccc(Cl)cc21 [CHLORPROMAZINE] |  |  | 4.74 |  |
| Cc1cc2c(s1)Nc1ccccc1N=C2N1CCN(C)CC1 [OLANZAPINE] |  | 3.21 |  | pKa [6]: 4.66; fraction unbound [2]: 0.034; pKa [3]: 8.5 |
| COc1cc(NC(C)CCCN)c2ncccc2c1 (stereo not given) [PRIMAQUINE] |  |  | 3 | logP [4]: 3.8 |
| CNCCCC12CCC(c3ccccc31)c1ccccc12 [MAPROTILINE] |  | 4.67 |  | fraction unbound [2]: 0.006; pKa [3]: 10.6 |
| OCCOCCN1CCN(C2=Nc3ccccc3Sc3ccccc32)CC1 [QUETIAPINE] | 3.4 | 3.54 |  | pKa [6]: 3.64; fraction unbound [2]: 0.025; pKa [3]: 6.91 |
| Nc1c2c(nc3ccccc13)CCCC2 [TACRINE] |  |  |  | fraction unbound [2]: 0.124 |
